Data from patent US7357835B2, “Production of crystalline materials by using high intensity ultrasound” (Accentus PLC, priority 2002, dated 2008).

Tests used:
[1] = Effect of ultrasound on crystallisation of aqueous D-xylose solution cooled at 0.2 K/min; type: physicochemical; settings: for temperature T at which solid first appeared: solution saturated at 50° C.
Description: Referring to the drawing, a batch crystallisation irradiator 10 includes a stainless-steel vessel 12 of internal diameter 0.31 m and of wall thickness 2 mm. To the outside of the wall are attached sixty transducer modules 14 closely packed in a square array. Each transducer module 14 comprises a 50 W piezoelectric transducer 16 which resonates at 20 kHz, attached to a conically flared titanium coupling block 18 by which it is connected to the wall, the wider end of each block being of diameter 63 mm. The transducer modules define five circumferential rings each of twelve modules 14, the centres of the coupling blocks 18 being on a square pitch of 82 mm. The irradiator 10 also incorporates three signal generators 20 (only one is shown) each of which drives the transducers 16 in a pair of adjacent longitudinal rows and another such pair of rows one third of the circumference apart from the first pair.
Consequently the solution will become saturated and then supersaturated. When the temperature is about 10° C. below that at which saturation occurs, the transducers are energized briefly, each generator 20 being energized for 0.8 s successively. Each transducer irradiates 50 W over a circle of diameter 63 mm, that is an intensity of 1.6 W/cm^2. The ultrasonic energy is dissipated over the cylindrical volume of the vessel 12, which is about 31 litres, so if all the transducers 16 were energised simultaneously the power density would be about 100 W/litre. To avoid focusing, only one signal generator 20 is energized at any one time, so the energy deposition is about 33 W/litre. After 0.8 s, a different generator 20 is energized, and so on. After 2.4 s each transducer has been energized, and application of ultrasound is terminated. The contents of the vessel 12 are then inspected, to see if any crystals have formed. If there are no crystals this activation procedure is repeated.
When they are activated, the signal generators 20 generate signals at a frequency that varies between 19.5 and 20.5 kHz, the signals from different signal generators 20 varying independently of each other. The frequency of each signal generator 20 varies sinusoidally with time between those frequency limits, at a frequency of 10 Hz.
(§1) An experiment to investigate the effect of ultrasound on crystallisation has been performed, as follows. An aqueous solution of D-xylose containing 25 g D-xylose per 10 ml water was prepared, which would be saturated at 50° C. This was than cooled at a rate of 0.2 K/min to 20° C., and the resulting solid products were separated and isolated. […] If the transducers 14 were energized for a period of 2 minutes, starting at 46° C., then crystals appeared at 43° C. If the transducers 14 were energized continuously, starting at 50° C., then the resulting crystals were very small, and information on sizes was not obtained.

[2] = Saturation of aqueous D-xylose solution; type: physicochemical; settings: saturated at 50° C.
Experimental: as §1

For `O=C[C@H](O)[C@@H](O)[C@H](O)CO` [D-xylose], the “crystal size at 10% cumulative percentile (by mass)” value ([1]; 2 min ultrasound) was 43 microns, the “crystal size at 50% cumulative percentile (by mass)” value ([1]; 2 min ultrasound) was 106 microns and the “crystal size at 90% cumulative percentile (by mass)” value ([1]; 2 min ultrasound) was 211 microns. The “temperature T at which solid first appeared” value (“temperature T” below) ([1]; 2 min ultrasound starting at 46° C., cooled 0.2 K/min) was 43 °C, the metastable zone width ([1]; absence of ultrasound) was “about 14 K” and the metastable zone width ([1]; continuous application of ultrasound) was “about 4 K”. For the same compound, the “temperature T” value ([1]; continuous ultrasound starting at 50° C., cooled 0.2 K/min) was 46 °C, the “crystal size at 10% cumulative percentile (by mass)” value ([1]; no ultrasound) was 27 microns and the “crystal size at 50% cumulative percentile (by mass)” value ([1]; no ultrasound) was 67 microns. For the same compound, the “crystal size at 90% cumulative percentile (by mass)” value ([1]; no ultrasound) was 149 microns, the “temperature T” value ([1]; no ultrasound (control), cooled 0.2 K/min to 20° C.) was 36 °C and the metastable zone width ([1]; short application of ultrasound) was “about 7 K”. The “concentration of saturated aqueous solution” value [2] was 25 g per 10 ml water.
